Measurements taken from US11285156B2, “Substituted piperazines as KRAS G12C inhibitors” (Amgen Inc., priority 2018, dated 2022).

Columns and labels:
[1] = system: Phosphorylation of ERK1/2 in A549 cells; assay: Phospho-ERK1/2 MSD assay in A549 cells; type: cell-based; conditions: Homo sapiens, A549, 2 h, read-out: p-ERK IC50 (2 h, A549; μM), 2 h compound treatment, A549 cells, EGF stimulated
Outline: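 MSD electrochemiluminescent read-out of phospho-ERK1/2 in RIPA lysates. Cells in RPMI 1640 with 10% FBS received titrated compound for 2 or 4 h, then 10 ng/mL EGF for 10 min before ice-cold PBS wash and lysis.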

[2] = target: GDP-bound KRAS protein (aa 1-169), containing both G12C and C118A amino acid substitutions (Homo sapiens (Human), UniProt P01116, C118A/G12C); assay: Coupled nucleotide exchange assay (SOS-mediated nucleotide exchange, AlphaScreen); type: biochemical; conditions: read-out: Coupled exchange IC50 (5 min; μM); 5 min compound pre-incubation
Sequence of GDP-bound KRAS protein (aa 1-169), containing both G12C and C118A amino acid substitutions (P01116 other isoform, or with tags, fused parts or gaps G12C/C118A): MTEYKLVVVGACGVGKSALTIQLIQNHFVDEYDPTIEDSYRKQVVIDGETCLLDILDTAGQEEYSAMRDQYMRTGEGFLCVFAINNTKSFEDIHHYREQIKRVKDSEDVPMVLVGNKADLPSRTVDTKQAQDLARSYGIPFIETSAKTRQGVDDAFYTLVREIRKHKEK

[3] = system: Phosphorylation of ERK1/2 in MIA PaCa-2 cells; assay: Phospho-ERK1/2 MSD assay in MIA PaCa-2 cells; type: cell-based; conditions: Homo sapiens, MIA PaCa-2, 2 h, read-out: p-ERK IC50 (2 h, MiaPaCa-2; μM), 2 h compound treatment, MIA PaCa-2 cells, EGF stimulated
Outline: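 Phospho-ERK1/2 measured by MSD electrochemiluminescence kit in RIPA lysates of MIA PaCa-2 cells. Cells were treated with compound titrations for 2 or 4 h at 37 °C, 5% CO2, followed by a 10 min pulse of 10 ng/mL EGF.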

C=CC(=O)N1C[C@H](C)N(c2nc(=O)n(-c3c(C(C)C)nc(N)nc3C(C)C)c3nc(-c4ccccc4F)c(Cl)cc23)C[C@H]1C [Example 229, 4-((2S,5R)-4-Acryloyl-2,5-dimethylpiperazin-1-yl)-1-(2-amino-4,6-diisopropylpyrimidin-5-yl)-6-chloro-7-(2-fluorophenyl)pyrido[2,3-d]pyrimidin-2(1H)-one]
IC50 [1]: > 7.5 µM
IC50 [2]: 0.071 µM
IC50 [3]: 0.032 µM
